According to patent US8148531B2 (Chroma Therapeutics Ltd., priority 2005, dated 2012):

Experiments:
Aurora-A = target: T1, Aurora-A (Homo sapiens, UniProt O14965); assay: Aurora-A enzyme assay (MBP-coated Flashplate, γ-33P-ATP); assay type: biochemical; settings: IC50 range class; read-out: Inhibitor Activity vs Aurora-A
T1 sequence (O14965 1-403): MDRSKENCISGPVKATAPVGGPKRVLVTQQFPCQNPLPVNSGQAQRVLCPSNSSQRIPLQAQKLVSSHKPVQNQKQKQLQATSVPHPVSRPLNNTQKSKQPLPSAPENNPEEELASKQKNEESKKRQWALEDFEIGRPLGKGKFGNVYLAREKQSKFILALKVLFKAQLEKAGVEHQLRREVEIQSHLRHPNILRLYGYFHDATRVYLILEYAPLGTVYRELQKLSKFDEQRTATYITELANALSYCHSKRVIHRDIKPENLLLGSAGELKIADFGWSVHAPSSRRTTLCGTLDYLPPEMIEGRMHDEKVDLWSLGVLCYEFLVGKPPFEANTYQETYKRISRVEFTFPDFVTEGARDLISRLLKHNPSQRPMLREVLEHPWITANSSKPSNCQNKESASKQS
Description: The ability of compounds to inhibit Aurora-A activity was measured using a simple microplate assay for Aurora-A activity, also suitable for high-throughput screening. In brief, γ-^33P-ATP and Aurora-A were incubated in a myelin basic protein (MBP)-coated Flashplate® to generate a scintillation signal. The plates were formatted to contain the inhibitor, controls, positive control (staurosporin) and blanks. After incubation at 37° C. for 1 hour and a subsequent wash procedure, the plates were read on a TopCount-NXT™.
The 384-well basic Flashplate® and the γ-^33P-ATP were obtained from PerkinElmer Life Sciences, Boston, Mass.
IC50 values were determined by non-linear regression analysis, after fitting the data point results to the equation for sigmoidal dose response with variable slope (% activity against log concentration of compound), using Graphpad Prism software.
Full experimental procedure for this assay can be found within the following reference: Sun, C Journal of Biomolecular Screening 9(5), 2004, 391.

Aurora-B = Aurora-B (Homo sapiens, UniProt Q96GD4); assay: Aurora-B enzyme assay (identical protocol as Aurora-A); assay type: biochemical; settings: IC50 range class; read-out: Inhibitor Activity vs Aurora-B
In short: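 Aurora-B was assayed in the same way as Aurora-A: kinase and γ-33P-ATP were incubated for 1 h at 37 °C in myelin basic protein-coated scintillation plates. After washing, bound radioactivity was counted. IC50 values came from a variable-slope sigmoidal fit of % activity against log compound concentration.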

U937 cell line = assay: Cell inhibition assay (SRB cell viability), U937; assay type: cell-based; settings: Homo sapiens, U-937, IC50 range class, 72 h, read-out: Inhibitor Activity vs U937 cell line
In short: (§1)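 Log-phase cells seeded at 1000 cells/well, grown 24 h, then exposed to compounds (20 uM final) for 72 h. Viability read by sulphorhodamine B staining as % inhibition versus DMSO; IC50 from eight-point sigmoidal variable-slope fit.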

HCT 116 cell line = assay: Cell inhibition assay (SRB cell viability), HCT 116; assay type: cell-based; settings: Homo sapiens, IC50 range class, 72 h, read-out: Inhibitor Activity vs HCT 116 cell line
In short: as §1

HUT cell line = assay: Cell inhibition assay (SRB cell viability), HUT; assay type: cell-based; settings: IC50 range class, 72 h, read-out: Inhibitor Activity vs HUT cell line
In short: as §1

Chain of Aurora-B (Q96GD4 whole entry): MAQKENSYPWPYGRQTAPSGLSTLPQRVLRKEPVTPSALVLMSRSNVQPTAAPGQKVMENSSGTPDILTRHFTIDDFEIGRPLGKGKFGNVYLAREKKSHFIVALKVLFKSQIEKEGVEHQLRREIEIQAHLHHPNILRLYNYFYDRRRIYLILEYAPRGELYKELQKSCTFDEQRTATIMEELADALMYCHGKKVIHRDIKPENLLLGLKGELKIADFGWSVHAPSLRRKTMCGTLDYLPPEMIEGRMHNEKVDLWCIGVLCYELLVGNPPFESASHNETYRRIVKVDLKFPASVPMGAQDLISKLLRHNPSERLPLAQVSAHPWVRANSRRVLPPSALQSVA

Row | IC50 (Aurora-A) | IC50 (Aurora-B) | IC50 (U937 cell line) | IC50 (HCT 116 cell line) | Structure (SMILES) | IC50 (HUT cell line)
1 | 2000 to 5000 nM | 2000 to 5000 nM | < 1000 nM | < 1000 nM | COc1cc2c(Oc3ccc(NC(=O)Nc4ccccc4)cc3)ccnc2cc1OCCC[C@H](N)C(=O)OC1CCCC1 [Example 111, (S)-2-Amino-5-{6-methoxy-4-[4-(3-phenyl-ureido)-phenoxy]-quinolin-7-yloxy}-pentanoic acid cyclopentyl ester] | < 1000 nM
2 | 2000 to 5000 nM | < 2000 nM | < 1000 nM | < 1000 nM | COc1cc2c(Oc3ccc(NC(=O)Nc4ccccc4)cc3)ccnc2cc1OCC[C@@H](N)C(=O)OC1CCCC1 [Example 101, (R)-2-Amino-4-{6-methoxy-4-[4-(3-phenyl-ureido)-phenoxy]-quinolin-7-yloxy}-butyric acid cyclopentyl ester] | < 1000 nM
3 | > 5000 nM | > 5000 nM | < 1000 nM | < 1000 nM | COc1cc2c(Sc3ccc(NC(=O)C4CC4)cc3)ccnc2cc1OCC[C@H](N)C(=O)OC1CCCC1 [Example 20, (S)-2-Amino-4-{4-[4-(cyclopropanecarbonyl-amino)-phenylsulfanyl]-6-methoxy-quinolin-7-yloxy}-butyric acid cyclopentyl ester] | < 1000 nM
4 | 2000 to 5000 nM | 2000 to 5000 nM | < 1000 nM | < 1000 nM | COc1cc2c(Oc3ccc(NC(=O)c4ccccc4)cc3)ccnc2cc1OCC[C@H](N)C(=O)OC1CCCC1 [Example 2, (S)-2-Amino-4-[4-(4-benzoylamino-phenoxy)-6-methoxy-quinolin-7-yloxy]-butyric acid cyclopentyl ester] | < 1000 nM
5 | 2000 to 5000 nM | 2000 to 5000 nM | < 1000 nM | < 1000 nM | COc1cc2c(Oc3ccc(NC(=O)Nc4ccccc4)cc3)ccnc2cc1OCC[C@H](N)C(=O)OC1CCCC1 [Example 95, (S)-2-Amino-4-{6-methoxy-4-[4-(3-phenyl-ureido)-phenoxy]-quinolin-7-yloxy}-butyric acid cyclopentyl ester] | < 1000 nM
6 | < 2000 nM | 2000 to 5000 nM | < 1000 nM | < 1000 nM | COc1cc2c(Oc3ccc(NC(=O)Nc4ccc(C(F)(F)F)cc4)cc3)ccnc2cc1OCC[C@H](N)C(=O)OC1CCCC1 [Example 93, (S)-2-Amino-4-(6-methoxy-4-{4-[3-(4-trifluoromethyl-phenyl)-ureido]-phenoxy}-quinolin-7-yloxy)-butyric acid cyclopentyl ester] | < 1000 nM
7 | 2000 to 5000 nM | 2000 to 5000 nM | < 1000 nM | < 1000 nM | COc1cc2c(Oc3ccc(NC(=O)Nc4ccc(C(F)(F)F)cc4)cc3F)ccnc2cc1OCC[C@H](N)C(=O)OC1CCCC1 [Example 125, (S)-2-Amino-4-(4-{2-fluoro-4-[3-(4-trifluoromethyl-phenyl)-ureido]-phenoxy}-6-methoxy-quinolin-7-yloxy)-butyric acid cyclopentyl ester] | < 1000 nM
8 | 2000 to 5000 nM | 2000 to 5000 nM | < 1000 nM | < 1000 nM | COc1cc2c(Oc3ccc(NC(=O)c4ccccc4)cc3)ccnc2cc1OCCC[C@H](N)C(=O)OC1CCCC1 [Example 109, (S)-2-Amino-5-[4-(4-benzoylamino-phenoxy)-6-methoxy-quinolin-7-yloxy]-pentanoic acid cyclopentyl ester] | < 1000 nM
9 | < 2000 nM | < 2000 nM | < 1000 nM | < 1000 nM | COc1cc2c(Oc3ccc(NC(=O)Nc4ccc(C(F)(F)F)cc4)cc3)ccnc2cc1OCCC[C@@H](N)C(=O)OC1CCCC1 [Example 119, (R)-2-Amino-5-(6-methoxy-4-{4-[3-(4-trifluoromethyl-phenyl)-ureido]-phenoxy}-quinolin-7-yloxy)-pentanoic acid cyclopentyl ester] | < 1000 nM
10 | 2000 to 5000 nM | 2000 to 5000 nM | < 1000 nM | < 1000 nM | COc1cc2c(Oc3ccc(NC(=O)c4ccccc4)cc3)ccnc2cc1OCCC[C@@H](N)C(=O)OC1CCCC1 [Example 115, (R)-2-Amino-5-[4-(4-benzoylamino-phenoxy)-6-methoxy-quinolin-7-yloxy]-pentanoic acid cyclopentyl ester] | < 1000 nM
11 | 2000 to 5000 nM | 2000 to 5000 nM | < 1000 nM | < 1000 nM | COc1cc2c(Oc3ccc(NC(=O)c4ccccc4)cc3)ccnc2cc1OCC[C@@H](N)C(=O)OC1CCCC1 [Example 99, (R)-2-Amino-4-[4-(4-benzoylamino-phenoxy)-6-methoxy-quinolin-7-yloxy]-butyric acid cyclopentyl ester] | < 1000 nM

Row | Structure (SMILES) | IC50 (Aurora-A) | IC50 (Aurora-B) | IC50 (U937 cell line) | IC50 (HCT 116 cell line) | IC50 (HUT cell line)
12 | COc1cc2c(Oc3ccc(NC(=O)c4ccccc4)cc3)c(Br)cnc2cc1OCC[C@H](N)C(=O)OC1CCCC1 [Example 32] | > 5000 nM | > 5000 nM | 1000 to 5000 nM | > 5000 nM | 1000 to 5000 nM
13 | COc1cc2c(Oc3ccc(NC(=O)c4ccccc4)cc3)ccnc2cc1OCC[C@H](NC(=O)OC(C)(C)C)C(=O)OC1CCCC1 [Example 1, (S)-4-[4-(4-Benzoylamino-phenoxy)-6-methoxy-quinolin-7-yloxy]-2-tert-butoxycarbonylamino-butyric acid cyclopentyl ester] | 2000 to 5000 nM | > 5000 nM | < 1000 nM | < 1000 nM | 1000 to 5000 nM
